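Interpolation was linear, between the two tested concentrations surrounding the appropriate level; five concentrations were tested over 48 hours in 96-well plates. GI50: concentration for 50% inhibition of growth.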 Active and inactive are the calls of the source. Rule as the data show it: active = GI50 up to about 1.1 µM and inactive = higher. Residues, ends and D or L forms follow the SMILES beside them.

This is an account of results in ChEMBL document CHEMBL1201862, “PubChem BioAssay data set” (2004).

Among the test systems are LOX IMVI; M14; SK-OV-3; MCF7; SN12C; T47D; CAKI-1; SK-MEL-5; HCC 2998; Hs-578T; RPMI-8226; SK-MEL-28; K562; SF-539; Malme-3M; OVCAR-5; HT-29; UO-31; HOP-92; COLO 205.
What all share (experiment): inhibition of tumour cell growth, NCI panel, 48 h

Take `CC1=C(N2CC2)C(=O)C(CO)=C(N2CC2)C1=O`: the GI50 in the assay on LOX IMVI is < 0.01 µM (active); with M14 it was 0.0111 µM (active); in the assay on SK-OV-3, 0.0516 µM (active); in the assay with MCF7 it was 0.0106 µM (active); in the assay with SN12C, < 0.0102 µM (active); in the assay with T47D, 0.0114 µM (active). In addition, the GI50 with CAKI-1 was < 0.01 µM (active); with SK-MEL-5 it was 0.0279 µM (active); in the assay with HCC 2998, 0.0378 µM (active); in the assay on Hs-578T, 0.234 µM (active); in the assay with RPMI-8226, < 0.0142 µM (active); in the assay with SK-MEL-28, 0.0711 µM (active). Moreover, the GI50 is 0.0186 µM (active) in the assay with K562; < 0.0123 µM (active) in the assay with SF-539; 0.0357 µM (active) with Malme-3M; 0.067 µM (active) in the assay on OVCAR-5; 0.0132 µM (active) with HT-29; 0.0101 µM (active) in the assay with UO-31.

Take `O=C(O)COc1c(Cl)cc(Cl)c2cccnc12`: the GI50 in the assay with LOX IMVI, in the assay with M14, with HOP-92, with SK-OV-3, in the assay with MCF7 and with SN12C was > 100 µM (inactive) throughout. Further, the GI50 in the assay on T47D, in the assay on CAKI-1, in the assay with COLO 205, with SK-MEL-5, in the assay with Hs-578T and in the assay with RPMI-8226 was > 100 µM (inactive) each time. In addition, the GI50 in the assay with SK-MEL-28, in the assay with K562, with SF-539, in the assay with Malme-3M, with OVCAR-5 and in the assay with HT-29 was > 100 µM (inactive) throughout. Also, the GI50 in the assay on UO-31 is > 100 µM (inactive).

Turning to `NC1=NC(c2ccc(Cl)cc2)N(c2ccc(S(N)(=O)=O)cc2)C(N)=N1` (stereo not drawn), the GI50 in the assay on LOX IMVI, in the assay with M14, with HOP-92, in the assay with SK-OV-3, in the assay with MCF7 and in the assay with SN12C was > 100 µM (inactive) throughout. For the same compound, the GI50 in the assay on T47D, with CAKI-1, in the assay with COLO 205, in the assay on SK-MEL-5, in the assay on Hs-578T and with RPMI-8226 was > 100 µM (inactive) throughout. Also, the GI50 in the assay on SK-MEL-28, with K562, in the assay with SF-539, in the assay on Malme-3M, in the assay on OVCAR-5 and in the assay on HT-29 was > 100 µM (inactive) each time. Also, the GI50 in the assay with UO-31 is > 100 µM (inactive).

On to `COc1ccc(-c2cc(-c3ccccc3)nc(N)n2)c(O)c1`, for which the GI50 with LOX IMVI was 6.78 µM (inactive); in the assay with M14 it was > 27.3 µM (inactive); with HOP-92, > 43 µM (inactive); with SK-OV-3, 7 µM (inactive); with MCF7 it was 0.984 µM (active); with SN12C, > 25.3 µM (inactive). The GI50 in the assay with T47D was 5.86 µM (inactive); in the assay with COLO 205, > 100 µM (inactive); with SK-MEL-5, 7.16 µM (inactive); in the assay on HCC 2998, > 100 µM (inactive); in the assay with Hs-578T, > 100 µM (inactive); in the assay on RPMI-8226, 2.31 µM (inactive). Also, the GI50 was > 83.4 µM (inactive) in the assay with SK-MEL-28; 2.19 µM (inactive) in the assay with K562; > 100 µM (inactive) in the assay with SF-539; > 100 µM (inactive) with Malme-3M; > 100 µM (inactive) with OVCAR-5; > 26.9 µM (inactive) in the assay on HT-29. In addition, the GI50 in the assay on UO-31 is 2.13 µM (inactive).

`C(=N\c1cnc2ccccc2c1)/c1ccc2ccccc2n1`: the GI50 in the assay on LOX IMVI was 72.9 µM (inactive); with M14, > 100 µM (inactive); in the assay with HOP-92, > 100 µM (inactive); with SK-OV-3, > 100 µM (inactive); in the assay on MCF7 it was 43 µM (inactive); in the assay on SN12C, > 100 µM (inactive). In addition, the GI50 in the assay on T47D was > 100 µM (inactive); in the assay with CAKI-1, > 100 µM (inactive); in the assay with COLO 205, > 100 µM (inactive); in the assay with SK-MEL-5 it was > 100 µM (inactive); in the assay on Hs-578T, > 100 µM (inactive); with RPMI-8226, 29.2 µM (inactive). Further, the GI50 in the assay with SK-MEL-28 was > 100 µM (inactive); with K562, 52 µM (inactive); in the assay on SF-539, > 100 µM (inactive); in the assay with Malme-3M, > 100 µM (inactive); in the assay on OVCAR-5, > 100 µM (inactive); in the assay with HT-29, > 100 µM (inactive). Moreover, in the assay with UO-31, the GI50 is > 100 µM (inactive).

For `Cc1ccc2c(c1)SC1=Nc3sc4cc(C)ccc4[n+]3CN12`, the GI50 in the assay with LOX IMVI is 21 µM (inactive); in the assay on M14 it was 3.59 µM (inactive); in the assay on HOP-92, 2.97 µM (inactive); with SK-OV-3, 31.8 µM (inactive); with MCF7, 4.44 µM (inactive); in the assay on SN12C it was 7.16 µM (inactive). The GI50 in the assay with T47D was 1.34 µM (inactive); with COLO 205, 2.7 µM (inactive); in the assay on SK-MEL-5 it was 1.07 µM (active); in the assay on HCC 2998, 1.75 µM (inactive); with Hs-578T, 6.87 µM (inactive); in the assay with RPMI-8226 it was 1.81 µM (inactive). Also, the GI50 was 13 µM (inactive) with SK-MEL-28; 3.73 µM (inactive) with SF-539; 0.568 µM (active) in the assay with Malme-3M; 18.3 µM (inactive) in the assay with OVCAR-5; 6.82 µM (inactive) in the assay on HT-29; 35.6 µM (inactive) in the assay with UO-31.

As for `CC12CCC(C(=O)OC1=O)C2(C)C` (stereo not drawn), the GI50 in the assay with LOX IMVI, in the assay on M14, with SK-OV-3, in the assay on MCF7, with SN12C and with T47D was > 100 µM (inactive) throughout. Also, the GI50 with COLO 205, in the assay on HCC 2998, in the assay with Hs-578T, in the assay with RPMI-8226, in the assay on SK-MEL-28 and in the assay on K562 was > 100 µM (inactive) throughout. Further, the GI50 in the assay on SF-539, in the assay on Malme-3M, with OVCAR-5, in the assay on HT-29 and in the assay with UO-31 was > 100 µM (inactive) throughout.

Consider `Cc1ccc(NC(=O)CC(=O)n2nc(C)c(/N=N/c3ccc(S(=O)(=O)CCOS(=O)(=O)O)cc3)c2C)cc1`, for which the GI50 with LOX IMVI was > 100 µM (inactive); in the assay on M14, > 100 µM (inactive); in the assay with SK-OV-3, > 100 µM (inactive); in the assay with MCF7, > 100 µM (inactive); in the assay on SN12C it was > 10 µM (inactive); in the assay on T47D it was > 100 µM (inactive). In addition, the GI50 in the assay with COLO 205, in the assay on SK-MEL-5, in the assay with HCC 2998, in the assay on Hs-578T, with RPMI-8226 and in the assay on SK-MEL-28 was > 100 µM (inactive) each time. Moreover, the GI50 in the assay on K562, with SF-539, in the assay on Malme-3M, in the assay on OVCAR-5, in the assay on HT-29 and with UO-31 was > 100 µM (inactive) each time.

Turning to `CC(=O)NNC(=S)N/C=C1/C(=O)Oc2ccccc2C1=O`, the GI50 was > 100 µM (inactive) in the assay on LOX IMVI; > 100 µM (inactive) with M14; > 100 µM (inactive) with MCF7; > 100 µM (inactive) in the assay on SN12C; 5.2 µM (inactive) with T47D; > 100 µM (inactive) in the assay with CAKI-1. In addition, the GI50 with COLO 205, in the assay with SK-MEL-5, in the assay with HCC 2998, with Hs-578T, in the assay with RPMI-8226 and in the assay on SK-MEL-28 was > 100 µM (inactive) each time. Also, the GI50 in the assay on K562, in the assay on SF-539, in the assay on Malme-3M, with OVCAR-5, with HT-29 and with UO-31 was > 100 µM (inactive) throughout.

In the case of `CC1(C)OC[C@@H](O)[C@H](C#N)CO1`, the GI50 in the assay on LOX IMVI, with M14, with SK-OV-3, with MCF7, in the assay with SN12C and in the assay with T47D was > 100 µM (inactive) in each case. The GI50 in the assay on CAKI-1, in the assay with COLO 205, in the assay with SK-MEL-5, in the assay with HCC 2998, in the assay with Hs-578T and in the assay with RPMI-8226 was > 100 µM (inactive) throughout. Moreover, the GI50 in the assay with SK-MEL-28, with K562, with SF-539, with Malme-3M, in the assay on OVCAR-5 and with HT-29 was > 100 µM (inactive) in each case. The GI50 with UO-31 was > 100 µM (inactive).

In the case of `CCC(C)C(NC(=O)C(CC(C)C)NC(=O)CNC(=O)C(NC(=O)C1CCCN1C(=O)C(CC(C)C)NC(=O)C(N)Cc1ccccc1)C(C)CC)C(=O)NC(CC(C)C)C(N)=O` (stereo not drawn) (H-FLPIGLIL-NH2; configuration not given here), the GI50 in the assay on LOX IMVI, in the assay on M14, in the assay with HOP-92, with SK-OV-3, in the assay on MCF7 and in the assay with SN12C was > 75 µM (inactive) each time. Also, the GI50 with T47D, in the assay on CAKI-1, in the assay on COLO 205, with SK-MEL-5, in the assay on Hs-578T and in the assay on RPMI-8226 was > 75 µM (inactive) each time. Further, the GI50 in the assay with SK-MEL-28, in the assay with K562, in the assay on SF-539, in the assay with Malme-3M, in the assay with OVCAR-5 and in the assay with HT-29 was > 75 µM (inactive) each time. Also, in the assay on UO-31, the GI50 is > 75 µM (inactive).
